The numbers were not newly measured in patent US20060246153A1, “Herbal compositions for the teatment and prevention of prostate disorders” (priority 2003, published 2006), which cites them from elsewhere.

The test system of the data set is localised prostate adenocarcinoma. The settings on record: 28 mg a day in the diet for three weeks.

`CC(C)=CCC/C(C)=C/C=C/C(C)=C/C=C/C(C)=C/C=C/C=C(C)/C=C/C=C(C)/C=C/C=C(\C)CCC=C(C)C` [lycopene]: the “oxidative damage to the DNA of the post-operative biopsy tissue” value was “greatly reduced” and the “plasma levels of PSA (prostate-specific antigen)” value was “reduced”.
